In patent US9873709B2 (priority 2013, dated 2018):

What follows are compounds tested on JAK1-dependent STAT6 phosphorylation downstream of IL-13 stimulation in TF-1 human erythroleukemia cells (assay: cells). Conditions: TF-1, read-out: IL-13-pSTAT6 IC50.

| Structure (SMILES) | IC50 [µM] |
| --- | --- |
| O=C(NC1CCNC1)c1ccc(Nc2nc3c(C4=CCN(C(=O)CCC(F)(F)F)CC4)cccn3n2)cc1 (centres unmarked) [Example 2-255, N-pyrrolidin-3-yl-4-[[8-[1-(4,4,4-trifluorobutanoyl)-3,6-dihydro-2H-pyridin-4-yl][1,2,4]triazolo[1,5 a]pyridin-2-yl]amino]benzamide] | 0.297 |
| NC1CN(C(=O)c2ccc(Nc3nc4c(C5=CCN(C(=O)CCC(F)(F)F)CC5)cccn4n3)cc2)C1 [Example 2-256, 1-[4-[2-[4-(3-aminoazetidine-1-carbonyl)anilino]-[1,2,4]triazolo[1,5-a]pyridin-8-yl]-3,6-dihydro-2H-pyridin-1-yl]-4,4,4-trifluoro-butan-1-one] | 0.0684 |
| O=C(CCC(F)(F)F)N1CC=C(c2cccn3nc(Nc4ccc(C(=O)N5CCCC56CCCNC6)cc4)nc23)CC1 (centres unmarked) [Example 2-257, 1-[4-[2-[4-(1,9-diazaspiro[4.5]decane-1-carbonyl)anilino]-[1,2,4]triazolo[1,5-a]pyridin-8-yl]-3,6-dihydro-2H-pyridin-1-yl]-4,4,4-trifluoro-butan-1-one] | 0.0605 |
| O=C(CCC(F)(F)F)N1CC=C(c2cccn3nc(Nc4ccc(C(=O)N5CCCC56CCNCC6)cc4)nc23)CC1 [Example 2-258, 1-[4-[2-[4-(1,8-diazaspiro[4.5]decane-1-carbonyl)anilino]-[1,2,4]triazolo[1,5-a]pyridin-8-yl]-3,6-dihydro-2H-pyridin-1-yl]-4,4,4-trifluoro-butan-1-one] | 0.238 |
| CN1CCOC2(C1)CN(C(=O)c1ccc(Nc3nc4c(C5=CCN(C(=O)CCC(F)(F)F)CC5)cccn4n3)cc1)C2 [Example 2-259, 4,4,4-trifluoro-1-[4-[2-[4-(8-methyl-5-oxa-2,8-diazaspiro[3.5]nonane-2-carbonyl)anilino]-[1,2,4]triazolo[1,5-a]pyridin-8-yl]-3,6-dihydro-2H-pyridin-1-yl]butan-1-one] | 0.0058 |
| O=C(CCC(F)(F)F)N1CC=C(c2cccn3nc(Nc4ccc(C(=O)N5CCN(C6CCC6)CC5)cc4)nc23)CC1 [Example 2-260, 1-[4-[2-[4-(4-cyclobutylpiperazine-1-carbonyl)anilino]-[1,2,4]triazolo[1,5-a]pyridin-8-yl]-3,6-dihydro-2H-pyridin-1-yl]-4,4,4-trifluoro-butan-1-one] | 0.0053 |
| CN(C)C(=O)C1(c2ccncc2)CCCN1C(=O)c1ccc(Nc2nc3c(C4=CCN(C(=O)CCC(F)(F)F)CC4)cccn3n2)cc1 (centres unmarked) [Example 2-261, N,N-dimethyl-2-(4-pyridyl)-1-[4-[[8-[1-(4,4,4-trifluorobutanoyl)-3,6-dihydro-2H-pyridin-4-yl]-[1,2,4]triazolo[1,5-a]pyridin-2-yl]amino]benzoyl] pyrrolidine-2-carboxamide] | 0.0465 |
| CN1CCN(C(=O)C2COCCN2C(=O)c2ccc(Nc3nc4c(C5=CCN(C(=O)CCC(F)(F)F)CC5)cccn4n3)cc2)CC1 (centres unmarked) [Example 2-262, 4,4,4-trifluoro-1-[4-[2-[4-[3-(4-methylpiperazine-1-carbonyl)morpholine-4-carbonyl]anilino]-[1,2,4]triazolo[1,5-a]pyridin-8-yl]-3,6-dihydro-2H-pyridin-1-yl]butane-1-one] | 0.0971 |
| CC1CC(C(=O)N2CC=C(c3cccn4nc(Nc5ccc(C(=O)N(C)C6CCN(C)CC6)cc5)nc34)CC2)C1 (centres unmarked) [Example 2-263, N-methyl-4-[[8-[1-(3-methylcyclobutanecarbonyl)-3,6-dihydro-2H-pyridin-4-yl]-[1,2,4]triazolo[1,5-a]pyridin-2-yl]amino]-N-(1-methyl-4-piperidyl)benzamide] | 0.0296 |
| CN1CCC(OC(=O)c2ccc(Nc3nc4c(C5=CCN(C(=O)CCC(F)(F)F)CC5)cccn4n3)cc2)CC1 [Example 2-264, (1-methyl-4-piperidyl) 4-[[8-[1-(4,4,4-trifluorobutanoyl)-3,6-dihydro-2H-pyridin-4-yl]-[1,2,4]triazolo[1,5-a]pyridin-2-yl]amino]benzoate] | 0.0117 |
| O=C(CCC(F)(F)F)N1CC=C(c2cccn3nc(Nc4ccc(C(=O)N5CCCCC5Cc5ccccn5)cc4)nc23)CC1 (centres unmarked) [Example 2-265, 4,4,4-trifluoro-1-[4-[2-[4-[2-(2-pyridylmethyl)piperidine-1-carbonyl]anilino]-[1,2,4]triazolo[1,5-a]pyridin-8-yl]-3,6-dihydro-2H-pyridin-1-yl]butan-1-one] | 0.0042 |
| CC(C)CN1CCN(C(=O)c2ccc(Nc3nc4c(C5=CCN(C(=O)CCC(F)(F)F)CC5)cccn4n3)cc2)CC1 [Example 2-266, 4,4,4-trifluoro-1-[4-[2-[4-(4-isobutylpiperazine-1-carbonyl)anilino]-[1,2,4]triazolo[1,5-a]pyridin-8-yl]-3,6-dihydro-2H-pyridin-1-yl]butan-1-one] | 0.0097 |
| CN1CCC(N(C)C(=O)c2ccc(Nc3nc4c(C5=CCN(C(=O)CCC(F)(F)F)CC5)cccn4n3)cc2)C1 (centres unmarked) [Example 2-267, N-methyl-N-(1-methylpyrrolidin-3-yl)-4-[[8-[1-(4,4,4-trifluorobutanoyl)-3,6-dihydro-2H-pyridin-4-yl]-[1,2,4]triazolo[1,5-a]pyridin-2-yl]amino]benzamide] | 0.0087 |
| CC1CC(C)CN(CCNC(=O)c2ccc(Nc3nc4c(C5=CCN(C(=O)CCC(F)(F)F)CC5)cccn4n3)cc2)C1 (centres unmarked) [Example 2-269, N-[2-(3,5-dimethyl-1-piperidyl)ethyl]-4-[[8-[1-(4,4,4-trifluorobutanoyl)-3,6-dihydro-2H-pyridin-4-yl]-[1,2,4]triazolo[1,5-a]pyridin-2-yl]amino]benzamide] | 0.0051 |
| CN1CCN(CCNC(=O)c2ccc(Nc3nc4c(C5=CCN(C(=O)CCC(F)(F)F)CC5)cccn4n3)cc2)CC1 [Example 2-270, N-[2-(4-methylpiperazin-1-yl)ethyl]-4-[[8-[1-(4,4,4-trifluorobutanoyl)-3,6-dihydro-2H-pyridin-4-yl]-[1,2,4]triazolo[1,5-a]pyridin-2-yl]amino]benzamide] | 0.0164 |
| O=C(CCC(F)(F)F)N1CC=C(c2cccn3nc(Nc4ccc(C(=O)N5CCCC5c5ccncc5)cc4)nc23)CC1 (centres unmarked) [Example 2-273, 4,4,4-trifluoro-1-[4-[2-[4-[2-(4-pyridyl)pyrrolidine-1-carbonyl]anilino]-[1,2,4]triazolo[1,5-a]pyridin-8-yl]-3,6-dihydro-2H-pyridin-1-yl]butan-1-one] | 0.0055 |
| CN1CCC(CCNC(=O)c2ccc(Nc3nc4c(C5=CCN(C(=O)CCC(F)(F)F)CC5)cccn4n3)cc2)CC1 [Example 2-274, N-[2-(1-methyl-4-piperidyl)ethyl]-4-[[8-[1-(4,4,4-trifluorobutanoyl)-3,6-dihydro-2H-pyridin-4-yl]-[1,2,4]triazolo[1,5-a]pyridin-2-yl]amino]benzamide] | 0.045 |
| CNC(=O)C1CN(C(=O)c2ccc(Nc3nc4c(C5=CCN(C(=O)CCC(F)(F)F)CC5)cccn4n3)cc2)CCN1C (centres unmarked) [Example 2-275, N,1-dimethyl-4-[4-[[8-[1-(4,4,4-trifluorobutanoyl)-3,6-dihydro-2H-pyridin-4-yl]-[1,2,4]triazolo[1,5-a]pyridin-2-yl]amino]benzoyl] piperazine-2-carboxamide] | 0.0372 |
| CNC(=O)C1CN(C)CCN1C(=O)c1ccc(Nc2nc3c(C4=CCN(C(=O)CCC(F)(F)F)CC4)cccn3n2)cc1 (centres unmarked) [Example 2-276, N,4-dimethyl-1-[4-[[8-[1-(4,4,4-trifluorobutanoyl)-3,6-dihydro-2H-pyridin-4-yl]-[1,2,4]triazolo[1,5-a]pyridin-2-yl]amino]benzoyl] piperazine-2-carboxamide] | 0.129 |
| O=C(CCC(F)(F)F)N1CC=C(c2cccn3nc(Nc4ccc(C(=O)N5CCC(Cc6cccnc6)CC5)cc4)nc23)CC1 [Example 2-277, 4,4,4-trifluoro-1-[4-[2-[4-[4-(3-pyridylmethyl)piperidine-1-carbonyl]anilino]-[1,2,4]triazolo[1,5-a]pyridin-8-yl]-3,6-dihydro-2H-pyridin-1-yl]butan-1-one] | 0.0198 |
| O=C(CCC(F)(F)F)N1CC=C(c2cccn3nc(Nc4ccc(C(=O)N5CCCN(c6ccncc6)CC5)cc4)nc23)CC1 [Example 2-278, 4,4,4-trifluoro-1-[4-[2-[4-[4-(4-pyridyl)-1,4-diazepane-1-carbonyl]anilino]-[1,2,4]triazolo[1,5-a]pyridin-8-yl]-3,6-dihydro-2H-pyridin-1-yl]butan-1-one] | 0.0393 |
| O=C(CCC(F)(F)F)N1CC=C(c2cccn3nc(Nc4ccc(C(=O)N(CCO)Cc5cccnc5)cc4)nc23)CC1 [Example 2-279, N-(2-hydroxyethyl)-N-(3-pyridylmethyl)-4-[[8-[1-(4,4,4-trifluorobutanoyl)-3,6-dihydro-2H-pyridin-4-yl]-[1,2,4]triazolo[1,5-a]pyridin-2-yl]amino]benzamide] | 0.0388 |
| O=C(CCC(F)(F)F)N1CC=C(c2cccn3nc(Nc4ccc(C(=O)N5CCCCC5c5cccnc5)cc4)nc23)CC1 (centres unmarked) [Example 2-280, 4,4,4-trifluoro-1-[4-[2-[4-[2-(3-pyridyl)piperidine-1-carbonyl]anilino]-[1,2,4]triazolo[1,5-a]pyridin-8-yl]-3,6-dihydro-2H-pyridin-1-yl]butan-1-one] | 0.0095 |
| CN1CCC(N(C)C(=O)c2ccc(Nc3nc4c(C5=CCN(C(=O)C6CCCC6)CC5)cccn4n3)cc2)CC1 [Example 2-281, 4-[[8-[1-(cyclopentanecarbonyl)-3,6-dihydro-2H-pyridin-4-yl]-[1,2,4]triazolo[1,5-a]pyridin-2-yl]amino]-N-methyl-N-(1-methyl-4-piperidyl)benzamide] | 0.0394 |
| CN1CCC(N(C)C(=O)c2ccc(Nc3nc4c(C5=CCN(C(=O)OC6COC6)CC5)cccn4n3)cc2)CC1 [Example 2-283, oxetan-3-yl-4-[2-[4-[methyl-(1-methyl-4-piperidyl)carbamoyl]anilino]-[1,2,4]triazolo[1,5-a]pyridin-8-yl]-3,6-dihydro-2H-pyridine-1-carboxylate] | 0.054 |
| CN1CCC(N(C)C(=O)c2ccc(Nc3nc4c(C5=CCN(c6ccccc6)CC5)cccn4n3)cc2)CC1 [Example 2-284, N-methyl-N-(1-methyl-4-piperidyl)-4-[[8-(1-phenyl-3,6-dihydro-2H-pyridin-4-yl)-[1,2,4]triazolo[1,5-a]pyridin-2-yl]amino]benzamide] | 0.163 |
